Results reported in patent US11793823B2, “Compounds and pharmaceutical uses thereof” (SyneuRx International (Taiwan) Corp., priority 2020, dated 2023).

What follows are molecules tested against human D-amino acid oxidase (hDAAO) (Homo sapiens (Human), UniProt P14920) (assay: In vitro human D-amino acid oxidase (hDAAO) activity, D-Serine/Amplex Red fluorescence). Conditions: D-Serine substrate, 20 min.
Format: biochemical
Protocol: The hDAAO inhibitory activities were measured by using D-Serine as a substrate to produce H2O2. The produced H2O2 would be oxidized by peroxidase, and the produced free radicals would further react with Amplex Red reagent to emit fluorescence. The intensity of fluorescence at 590 nm would be measured to represent the activity of hDAAO. All compounds were dissolved in DMSO. Each compound was diluted with DMSO in 3-fold serial dilution to create a dose response curve. Each sample was added in triplicate, 1 µL/well, into 96-well black plates. Positive control wells were added with 1 μL of DMSO. Then 49 μL of assay buffer (100 mM Tris-HCl, pH 8.5) containing 1.2 ng/mL hDAAO, 900 nM FAD, 0.2 units/mL HRP, and 100 μM Amplex Red was added to each well of the plate using a multichannel pipette. Next, 50 μL of 100 mM D-Serine in assay buffer was added. The reaction plates were then incubated in the dark at room temperature. The fluorescence readout was detected at 0 and 20 mins by Molecular Device Gemini EM fluorescence reader using the following settings: excitation filter 530 nm, and emission filter 590 nm. The percentage of inhibition values for each well was calculated with the following equation: The percentage of inhibition=(fluorescence sample, 20 min−fluorescence sample, 0 min)/(fluorescence DMSO, 20 min−fluorescence DMSO, 0 min)×100%
The nonlinear curve fitting model in GraphPad Prism was used to calculate IC50 value for each compound.

human D-amino acid oxidase (hDAAO), sequence (P14920 whole entry): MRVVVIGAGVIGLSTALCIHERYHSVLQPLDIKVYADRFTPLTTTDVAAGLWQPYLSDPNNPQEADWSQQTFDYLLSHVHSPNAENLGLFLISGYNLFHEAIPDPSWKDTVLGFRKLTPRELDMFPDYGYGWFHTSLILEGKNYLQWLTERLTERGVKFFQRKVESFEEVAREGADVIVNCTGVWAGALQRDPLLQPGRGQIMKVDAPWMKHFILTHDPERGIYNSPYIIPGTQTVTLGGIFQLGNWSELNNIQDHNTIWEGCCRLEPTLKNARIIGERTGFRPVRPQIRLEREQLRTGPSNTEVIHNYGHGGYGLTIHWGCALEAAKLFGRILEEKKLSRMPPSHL

Going from O=C(Oc1cc(C(=O)Oc2cc(C(=O)Oc3cc(C(=O)Oc4cc(C(=O)O[C@H]5OC[C@@H](OC(=O)c6cc(O)c(O)c(OC(=O)c7cc(O)c(O)c(OC(=O)c8cc(O)c(O)c(OC(=O)c9cc(O)c(O)c(OC(=O)c%10cc(O)c(O)c(O)c%10)c9)c8)c7)c6)[C@H](OC(=O)c6cc(O)c(O)c(OC(=O)c7cc(O)c(O)c(OC(=O)c8cc(O)c(O)c(OC(=O)c9cc(O)c(O)c(OC(=O)c%10cc(O)c(O)c(O)c%10)c9)c8)c7)c6)[C@H]5OC(=O)c5cc(O)c(O)c(OC(=O)c6cc(O)c(O)c(OC(=O)c7cc(O)c(O)c(OC(=O)c8cc(O)c(O)c(OC(=O)c9cc(O)c(O)c(O)c9)c8)c7)c6)c5)cc(O)c4O)cc(O)c3O)cc(O)c2O)cc(O)c1O)c1cc(O)c(O)c(O)c1 [Compound 123, (2R,3R,4S,5R)-tetrahydro-2H-pyran-2,3,4,5-tetrayl tetrakis(3-((3-((3-((3,4-dihydroxy-5-((3,4,5-trihydroxybenzoyl)oxy)benzoyl)oxy)-4,5-dihydroxybenzoyl)oxy)-4,5-dihydroxybenzoyl)oxy)-4,5-dihydroxybenzoate)] to O=C(OC[C@H]1O[C@@H](OC(=O)c2cc(O)c(O)c(OC(=O)c3cc(O)c(O)c(OC(=O)c4cc(O)c(O)c(OC(=O)c5cc(O)c(O)c(OC(=O)c6cc(O)c(O)c(O)c6)c5)c4)c3)c2)[C@H](OC(=O)c2cc(O)c(O)c(OC(=O)c3cc(O)c(O)c(OC(=O)c4cc(O)c(O)c(OC(=O)c5cc(O)c(O)c(OC(=O)c6cc(O)c(O)c(O)c6)c5)c4)c3)c2)[C@@H]1OC(=O)c1cc(O)c(O)c(OC(=O)c2cc(O)c(O)c(OC(=O)c3cc(O)c(O)c(OC(=O)c4cc(O)c(O)c(OC(=O)c5cc(O)c(O)c(O)c5)c4)c3)c2)c1)c1cc(O)c(O)c(OC(=O)c2cc(O)c(O)c(OC(=O)c3cc(O)c(O)c(OC(=O)c4cc(O)c(O)c(OC(=O)c5cc(O)c(O)c(O)c5)c4)c3)c2)c1 [Compound 148, (2S,3R,4R,5R)-5-(((3-((3-((3-((3,4-dihydroxy-5-((3,4,5-trihydroxybenzoyl)oxy)benzoyl)oxy)-4,5-dihydroxybenzoyl)oxy)-4,5-dihydroxybenzoyl)oxy)-4,5-dihydroxybenzoyl)oxy)methyl)tetrahydrofuran-2,3,4-triyl tris(3-((3-((3-((3,4-dihydroxy-5-((3,4,5-trihydroxybenzoyl)oxy)benzoyl)oxy)-4,5-dihydroxybenzoyl)oxy)-4,5-dihydroxybenzoyl)oxy)-4,5-dihydroxybenzoate)], the IC50 rises from 2.4 nM to 4 nM (1.7-fold).

Compared with O=C(O)c1cc(O)c(O)c(OC(=O)c2cc(O)c(O)c(OC(=O)c3cc(O)c(O)c(OC(=O)c4cc(O)c(O)c(OC(=O)c5cc(O)c(O)c(OC(=O)c6cc(CCc7ccccc7)n[nH]6)c5)c4)c3)c2)c1 [Compound 34, 3-((3-((3-((3-((3,4-dihydroxy-5-((3-phenethyl-1H-pyrazole-5-carbonyl)oxy)benzoyl)oxy)-4,5-dihydroxybenzoyl)oxy)-4,5-dihydroxybenzoyl)oxy)-4,5-dihydroxybenzoyl)oxy)-4,5-dihydroxybenzoic acid], O=C(O)c1cc(O)c(O)c(OC(=O)c2cc(O)c(O)c(OC(=O)c3cc(O)c(O)c(OC(=O)c4cc(O)c(O)c(OC(=O)c5cc(O)c(O)c(OC(=O)c6cc(CCc7cc(F)cc(F)c7)n[nH]6)c5)c4)c3)c2)c1 [Compound 58, 3-((3-((3-((3-((3-((3-(3,5-difluorophenethyl)-1H-pyrazole-5-carbonyl)oxy)-4,5-dihydroxybenzoyl)oxy)-4,5-dihydroxybenzoyl)oxy)-4,5-dihydroxybenzoyl)oxy)-4,5-dihydroxybenzoyl)oxy)-4,5-dihydroxybenzoic acid] is 2.1-fold lower in IC50: 68 nM for the first, 33 nM for the second.

Compared with O=C(Oc1cc(C(=O)Oc2cc(C(=O)Oc3cc(C(=O)Oc4cc(C(=O)OC5CC5)cc(O)c4O)cc(O)c3O)cc(O)c2O)cc(O)c1O)c1cc(O)c(O)c(O)c1 [Compound 98, 5-((5-((5-((5-(cyclopropoxycarbonyl)-2,3-dihydroxyphenoxy)carbonyl)-2,3-dihydroxyphenoxy)carbonyl)-2,3-dihydroxyphenoxy)carbonyl)-2,3-dihydroxyphenyl 3,4,5-trihydroxybenzoate], O=C(O)c1cc(O)c(O)c(OC(=O)c2cc(O)c(O)c(OC(=O)c3cc(O)c(O)c(OC(=O)c4cc(O)c(O)c(OC(=O)c5cc(O)c(O)c(OC(=O)c6ccc[nH]6)c5)c4)c3)c2)c1 [Compound 25, 3-((3-((3-((3-((3-((1H-pyrrole-2-carbonyl)oxy)-4,5-dihydroxybenzoyl)oxy)-4,5-dihydroxybenzoyl)oxy)-4,5-dihydroxybenzoyl)oxy)-4,5-dihydroxybenzoyl)oxy)-4,5-dihydroxybenzoic acid] is 2.7-fold higher in IC50: 33 nM for the first, 89 nM for the second.

O=C(O)c1cc(O)c(O)c(OC(=O)c2cc(O)c(O)c(OC(=O)c3cc(O)c(O)c(OC(=O)c4cc(O)c(O)c(O)c4)c3)c2)c1 [Compound 149, 3-((3-((3,4-dihydroxy-5-((3,4,5-trihydroxybenzoyl)oxy)benzoyl)oxy)-4,5-dihydroxybenzoyl)oxy)-4,5-dihydroxybenzoic acid] and O=C(O)c1cc(O)c(O)c(OC(=O)c2cc(O)c(O)c(OC(=O)c3cc(O)c(O)c(OC(=O)c4cc(O)c(O)c(OC(=O)c5cc(O)c(O)c(OC(=O)c6cc(O)c(O)c(OC(=O)c7cc(O)c(O)c(O)c7)c6)c5)c4)c3)c2)c1 [Compound 22, 3-((3-((3-((3-((3-((3,4-dihydroxy-5-((3,4,5-trihydroxybenzoyl)oxy)benzoyl)oxy)-4,5-dihydroxybenzoyl)oxy)-4,5-dihydroxybenzoyl)oxy)-4,5-dihydroxybenzoyl)oxy)-4,5-dihydroxybenzoyl)oxy)-4,5-dihydroxybenzoic acid] are within 1.5-fold of each other in IC50: 48 nM for the first, 63 nM for the second.

O=C(Oc1cc(OC(=O)c2cc(O)c(O)c(OC(=O)c3cc(O)c(O)c(OC(=O)c4cc(O)c(O)c(OC(=O)c5cc(O)c(O)c(OC(=O)c6cc(O)c(O)c(O)c6)c5)c4)c3)c2)cc(OC(=O)c2cc(CCc3ccc(C(F)(F)F)cc3)n[nH]2)c1)c1cc(O)c(O)c(OC(=O)c2cc(O)c(O)c(OC(=O)c3cc(O)c(O)c(OC(=O)c4cc(O)c(O)c(OC(=O)c5cc(O)c(O)c(O)c5)c4)c3)c2)c1 [Compound 107, 5-((3-(4-(trifluoromethyl)phenethyl)-1H-pyrazole-5-carbonyl)oxy)-1,3-phenylene bis(3-((3-((3-((3,4-dihydroxy-5-((3,4,5-trihydroxybenzoyl)oxy)benzoyl)oxy)-4,5-dihydroxybenzoyl)oxy)-4,5-dihydroxybenzoyl)oxy)-4,5-dihydroxybenzoate)] and O=C(OC[C@H]1O[C@@H](OC(=O)c2cc(O)c(O)c(OC(=O)c3cc(O)c(O)c(OC(=O)c4cc(O)c(O)c(O)c4)c3)c2)[C@H](OC(=O)c2cc(O)c(O)c(OC(=O)c3cc(O)c(O)c(OC(=O)c4cc(O)c(O)c(O)c4)c3)c2)[C@@H]1OC(=O)c1cc(O)c(O)c(OC(=O)c2cc(O)c(O)c(OC(=O)c3cc(O)c(O)c(O)c3)c2)c1)c1cc(O)c(O)c(OC(=O)c2cc(O)c(O)c(OC(=O)c3cc(O)c(O)c(O)c3)c2)c1 [Compound 144, (2S,3R,4R,5R)-5-(((3-((3,4-dihydroxy-5-((3,4,5-trihydroxybenzoyl)oxy)benzoyl)oxy)-4,5-dihydroxybenzoyl)oxy)methyl)tetrahydrofuran-2,3,4-triyl tris(3-((3,4-dihydroxy-5-((3,4,5-trihydroxybenzoyl)oxy)benzoyl)oxy)-4,5-dihydroxybenzoate)] are within 1.5-fold of each other in IC50: 7 nM for the first, 8 nM for the second.

O=C(Oc1cc(C(=O)Oc2cc(C(=O)Oc3cc(C(=O)O[C@@H]4OC[C@@H](OC(=O)c5cc(O)c(O)c(OC(=O)c6cc(O)c(O)c(OC(=O)c7cc(O)c(O)c(OC(=O)c8cc(O)c(O)c(O)c8)c7)c6)c5)[C@H](OC(=O)c5cc(O)c(O)c(OC(=O)c6cc(O)c(O)c(OC(=O)c7cc(O)c(O)c(OC(=O)c8cc(O)c(O)c(O)c8)c7)c6)c5)[C@H]4OC(=O)c4cc(O)c(O)c(OC(=O)c5cc(O)c(O)c(OC(=O)c6cc(O)c(O)c(OC(=O)c7cc(O)c(O)c(O)c7)c6)c5)c4)cc(O)c3O)cc(O)c2O)cc(O)c1O)c1cc(O)c(O)c(O)c1 [Compound 128, (2S,3R,4S,5R)-tetrahydro-2H-pyran-2,3,4,5-tetrayl tetrakis(3-((3-((3,4-dihydroxy-5-((3,4,5-trihydroxybenzoyl)oxy)benzoyl)oxy)-4,5-dihydroxybenzoyl)oxy)-4,5-dihydroxybenzoate)] and O=C(OC[C@H]1O[C@H](OC(=O)c2cc(O)c(O)c(OC(=O)c3cc(O)c(O)c(OC(=O)c4cc(O)c(O)c(OC(=O)c5cc(O)c(O)c(OC(=O)c6cc(O)c(O)c(O)c6)c5)c4)c3)c2)[C@H](OC(=O)c2cc(O)c(O)c(OC(=O)c3cc(O)c(O)c(OC(=O)c4cc(O)c(O)c(OC(=O)c5cc(O)c(O)c(OC(=O)c6cc(O)c(O)c(O)c6)c5)c4)c3)c2)[C@@H]1OC(=O)c1cc(O)c(O)c(OC(=O)c2cc(O)c(O)c(OC(=O)c3cc(O)c(O)c(OC(=O)c4cc(O)c(O)c(OC(=O)c5cc(O)c(O)c(O)c5)c4)c3)c2)c1)c1cc(O)c(O)c(OC(=O)c2cc(O)c(O)c(OC(=O)c3cc(O)c(O)c(OC(=O)c4cc(O)c(O)c(OC(=O)c5cc(O)c(O)c(O)c5)c4)c3)c2)c1 [Compound 140, (2R,3R,4R,5R)-5-(((3-((3-((3-((3,4-dihydroxy-5-((3,4,5-trihydroxybenzoyl)oxy)benzoyl)oxy)-4,5-dihydroxybenzoyl)oxy)-4,5-dihydroxybenzoyl)oxy)-4,5-dihydroxybenzoyl)oxy)methyl)tetrahydrofuran-2,3,4-triyl tris(3-((3-((3-((3,4-dihydroxy-5-((3,4,5-trihydroxybenzoyl)oxy)benzoyl)oxy)-4,5-dihydroxybenzoyl)oxy)-4,5-dihydroxybenzoyl)oxy)-4,5-dihydroxybenzoate)] are within 1.5-fold of each other in IC50: 3.3 nM for the first, 3 nM for the second.
